Format in all cases: functional
Assay [1] relates to A549. The experiment in a line: Antitumor activity against A549 cell line at 1 umol/L by SRB method. Conditions: Homo sapiens. (In general: Sulforhodamine B stains cellular protein and so reports cell mass.)
Assay [2] deals with P388. In words: Antitumor activity against P388 cell line at 1 umol/L by MTT method. Conditions: Mus musculus. A general note: Tetrazolium dyes change colour on reduction, which living cells bring about.
Assay [3] deals with A549. The experiment in a line: Antitumor activity against A549 cell line at 0.1 umol/L by SRB method. The note with it: Homo sapiens.
The test system of assay [4] is P388. In words: Antitumor activity against P388 cell line at 10 umol/L by MTT method. The note with it: Mus musculus.
For assay [5], the system named is A549. The experiment in a line: Antitumor activity against A549 cell line at 10 umol/L by SRB method. Conditions: Homo sapiens.
Assay [6] relates to P388. The experiment in a line: Antitumor activity against P388 cell line at 0.1 umol/L by MTT method. Conditions: Mus musculus.

Usually inhibition stands for the drop in the measured response relative to a control, in per cent. In the case of `C/C(=N/N=C(\S)N1CCN(c2ccccn2)CC1)c1ccc(Cl)cc1`, the inhibition at 1 µM in the assay on A549 [1] and in the assay with P388 [2] was 0% each time. In addition, the inhibition at 0.1 µM is 0.8% with A549 [3] and 0% in the assay on P388 [6]. In addition, the inhibition at 10 µM in the assay with P388 [4] and in the assay with A549 [5] was 0% throughout.

Consider `CCn1cc(C(=O)O)c(=O)c2cc(F)c(N3CCN(/C(S)=N/N=C(/C)c4ccccc4)CC3)cc21`, for which the figures for the inhibition at 1 µM with A549 [1] and in the assay on P388 [2] were 0.8% and 24.8%, respectively. The inhibition at 0.1 µM in the assay on A549 [3] and with P388 [6] was 0% each time. The inhibition at 10 µM with P388 [4] came to 100%; in the assay on A549 [5], 63.9%.

With `S=C(N/N=C\c1ccccc1)N1CCN(c2ccccn2)CC1`, the inhibition at 1 µM stood at 16.4% in the assay on A549 [1] and 4.6% in the assay with P388 [2]. Further, the inhibition at 0.1 µM in the assay on A549 [3] came to 0.8%; in the assay with P388 [6], 3.7%. The values for the inhibition at 10 µM with P388 [4] and with A549 [5] were 7.3% and 0%, respectively.

Take `C/C(=N/N=C(\S)N1CCN(C2CCCCCC2)CC1)c1ccccn1`: the figures for the inhibition at 1 µM in the assay with A549 [1] and in the assay on P388 [2] were 17.8% and 41.6%, respectively. For the same molecule, the inhibition at 0.1 µM was 0% in the assay with A549 [3] and 39.8% with P388 [6]. For the same molecule, the inhibition at 10 µM is 96.5% with P388 [4] and 40% in the assay on A549 [5].

Take `C/C(=N/N=C(\S)N1CCN(c2ccccn2)CC1)c1ccc(O)cc1`: the inhibition at 1 µM was 0% in the assay on A549 [1] and 25.8% in the assay on P388 [2]. The inhibition at 0.1 µM stood at 0% in the assay with A549 [3] and 28.8% in the assay with P388 [6]. The inhibition at 10 µM was 53% in the assay with P388 [4] and 0% with A549 [5].

Regarding `C/C(=N/N=C(\S)N1CCN(c2ccccn2)CC1)c1ccc(N)cc1`, the values for the inhibition at 1 µM with A549 [1] and in the assay with P388 [2] were 0% and 4.6%, respectively. For the same molecule, the inhibition at 0.1 µM came to 0% with A549 [3] and 12.1% in the assay on P388 [6]. Also, the inhibition at 10 µM stood at 30.3% with P388 [4] and 46.8% with A549 [5].

For the molecule `CCn1cc(C(=O)O)c(=O)c2cc(F)c(N3CCN(/C(S)=N/N=C(/C)c4ccccn4)CC3)cc21`, the figures for the inhibition at 1 µM in the assay on A549 [1] and with P388 [2] were 16.4% and 4.6%, respectively. Moreover, the inhibition at 0.1 µM with A549 [3] and in the assay with P388 [6] was 0% in each case. Besides, the values for the inhibition at 10 µM with P388 [4] and in the assay with A549 [5] were 26.6% and 7.4%, respectively.

`C/C(=N/N=C(\S)N1CCN(c2ccccn2)CC1)c1ccc(C)cc1`: the figures for the inhibition at 1 µM in the assay with A549 [1] and in the assay on P388 [2] were 0% and 21.2%, respectively. Moreover, the values for the inhibition at 0.1 µM in the assay on A549 [3] and in the assay with P388 [6] were 0% and 28.8%, respectively. The inhibition at 10 µM is 25.8% with P388 [4] and 0% in the assay with A549 [5].

In the case of `CCn1cc(C(=O)O)c(=O)c2cc(F)c(N3CCN(/C(S)=N/N=C\c4ccccc4)CC3)cc21`, the values for the inhibition at 1 µM in the assay on A549 [1] and with P388 [2] were 0.8% and 4.6%, respectively. Moreover, the inhibition at 0.1 µM in the assay on A549 [3] and in the assay with P388 [6] was 0% in each case. In addition, the inhibition at 10 µM in the assay on P388 [4] was 68.8%; with A549 [5] it was 4.1%.

On to `COc1ccc(/C(C)=N\N=C(/S)N2CCN(c3ccccn3)CC2)cc1`, for which the inhibition at 1 µM stood at 0% in the assay on A549 [1] and 3.7% in the assay on P388 [2]. The inhibition at 0.1 µM in the assay on A549 [3] amounted to 3.3%; in the assay on P388 [6] it was 2.8%. For the same molecule, the values for the inhibition at 10 µM in the assay on P388 [4] and in the assay on A549 [5] were 7.3% and 0.8%, respectively.

`C/C(=N/NC(=S)N1CCN(c2ccccn2)CC1)c1ccccn1`: the inhibition at 1 µM in the assay with A549 [1] came to 19.7%; in the assay with P388 [2] it was 12.8%. Moreover, the inhibition at 0.1 µM with A549 [3] is 24.6%; in the assay with P388 [6], 13.8%. The inhibition at 10 µM with P388 [4] and in the assay on A549 [5] was 100% throughout.

Regarding `C/C(=N/N=C(\S)N1CCN(c2ccccn2)CC1)c1ccco1`, the inhibition at 1 µM was determined as 0% in the assay with A549 [1] and 50% with P388 [2]. Moreover, the results for the inhibition at 0.1 µM in the assay on A549 [3] and in the assay on P388 [6] were 0% and 37.9%, respectively. Also, the inhibition at 10 µM worked out at 77.3% in the assay with P388 [4] and 72.3% in the assay with A549 [5].
